Data reported in patent US20060069132A1, “Azolecarboxamide herbicides” (priority 2004, published 2006).

Tests used:
corn = assay: Test C pre-/postemergence herbicide test; type: in vivo, Zea mays; settings: for Plant response rating, Corn / Plant response rating (0 = no effect, 100 = complete control), Corn: preemergence; for Plant response rating (0 = no effect, 100 = complete control), Corn: 62 g ai/ha
Method in brief: (§1)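 Preemergence: seeds planted and treated with compound in non-phytotoxic solvent with surfactant; postemergence: plants at 2 to 18 cm (1- to 4-leaf stage) sprayed likewise. Kept in greenhouse 12 to 14 days, then visually rated against controls, 0 (no effect) to 100 (complete control).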

giant foxtail = assay: Test C pre-/postemergence herbicide test; type: in vivo, Setaria faberi; settings: for Plant response rating, Foxtail, Giant / Plant response rating (0 = no effect, 100 = complete control), Foxtail, Giant: preemergence; for Plant response rating (0 = no effect, 100 = complete control), Foxtail, Giant: 62 g ai/ha
Method in brief: as §1

kochia = assay: Test C pre-/postemergence herbicide test; type: in vivo, Kochia scoparia; settings: for Plant response rating, Kochia / Plant response rating (0 = no effect, 100 = complete control), Kochia: preemergence; for Plant response rating (0 = no effect, 100 = complete control), Kochia: 62 g ai/ha
Method in brief: as §1

lambsquarters = assay: Test C pre-/postemergence herbicide test; type: in vivo, Chenopodium album; settings: for Plant response rating, Lambsquarters / Plant response rating (0 = no effect, 100 = complete control), Lambsquarters: preemergence; for Plant response rating (0 = no effect, 100 = complete control), Lambsquarters: 62 g ai/ha
Method in brief: as §1

large crabgrass = assay: Test A pre-/postemergence herbicide test; type: in vivo, Digitaria sanguinalis; settings: for Plant response rating, Crabgrass, Large: Postemergence; for Crabgrass, Large plant response rating: Preemergence
Method in brief: (§2)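 Sandy loam soil given preemergence directed spray; plants at 2 to 10 cm, one- to two-leaf stage, sprayed to runoff postemergence, compounds in non-phytotoxic solvent with surfactant. Injury rated visually versus untreated controls after about ten greenhouse days, 0 (no effect) to 100 (complete control); dash means not tested.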

common ragweed = assay: Test C pre-/postemergence herbicide test; type: in vivo, Ambrosia elatior; parameters: key to Plant response rating, Ragweed: 0 = no effect, 100 = complete control; settings: for Plant response rating, Ragweed / Plant response rating (0 = no effect, 100 = complete control), Ragweed: preemergence; for Plant response rating (0 = no effect, 100 = complete control), Ragweed: 62 g ai/ha
Method in brief: as §1

redroot pigweed = assay: Test A pre-/postemergence herbicide test; type: in vivo, Amaranthus retroflexus; settings: for Plant response rating, Pigweed: Postemergence; for Pigweed plant response rating: Preemergence
Method in brief: as §2

velvetleaf = assay: Test C pre-/postemergence herbicide test; type: in vivo, Abutilon theophrasti; settings: for Plant response rating, Velvetleaf: preemergence
Method in brief: as §1

[1] = system: common (oilseed) sunflower; assay: Test C pre-/postemergence herbicide test; type: in vivo, Helianthus annuus; settings: for Plant response rating, Sunflower / Plant response rating (0 = no effect, 100 = complete control), Sunflower: preemergence; for Plant response rating (0 = no effect, 100 = complete control), Sunflower: 62 g ai/ha
Method in brief: as §1

barnyardgrass = assay: Test A pre-/postemergence herbicide test; type: in vivo, Echinochloa crus-galli; settings: for Plant response rating, Barnyardgrass: Postemergence; for Barnyardgrass plant response rating: Preemergence
Method in brief: as §2

[2] = 125 g ai/ha, scale 0 (no effect) to 100 (complete control), visual, 12 to 14 days
[3] = 250 g ai/ha, scale 0 to 100 (0 no effect, 100 complete control), visual, 12 to 14 days
[4] = 500 g ai/ha, 0 to 100 scale, 0 no effect, 100 complete control
[5] = 2000 g ai/ha, 0 to 100 scale, 0 no effect, 100 complete control
[6] = 500 g ai/ha, visual rating, 0 to 100 scale (0 no effect, 100 complete control)
[7] = Preemergence, 500 g ai/ha, scale 0 to 100, 0 no effect, 100 complete control

SMILES	Plant response rating (0 = no effect, 100 = complete control), Corn (corn)	Plant response rating, Corn (corn; [2])	Plant response rating, Corn (corn; [3])	Plant response rating (0 = no effect, 100 = complete control), Foxtail, Giant (giant foxtail)	Plant response rating, Foxtail, Giant (giant foxtail; [2])	Plant response rating, Foxtail, Giant (giant foxtail; [3])	Plant response rating (0 = no effect, 100 = complete control), Kochia (kochia)	Plant response rating, Kochia (kochia; [2])	Plant response rating, Kochia (kochia; [3])	Plant response rating (0 = no effect, 100 = complete control), Lambsquarters (lambsquarters)	Plant response rating, Lambsquarters (lambsquarters; [2])	Plant response rating, Lambsquarters (lambsquarters; [3])	Plant response rating, Crabgrass, Large (large crabgrass; [4])	Plant response rating, Crabgrass, Large (large crabgrass; [5])	Crabgrass, Large plant response rating (large crabgrass; [6])	Crabgrass, Large plant response rating (large crabgrass; [5])	Plant response rating (0 = no effect, 100 = complete control), Ragweed (common ragweed)	Plant response rating, Ragweed (common ragweed; [2])	Plant response rating, Ragweed (common ragweed; [3])	Plant response rating, Pigweed (redroot pigweed; [4])	also measured
CCn1nc(C(C)(C)C)cc1C(=O)Nc1cccc(C(=O)NCC2CC2)c1 [Compound 62]	0	0	0	15	65	85	100	100	100	100	100	100	25	60	70	85	10	20	85	100	Plant response rating, Corn (corn; 31 g ai/ha, scale 0 to 100): 0; Plant response rating, Foxtail, Giant (giant foxtail; 31 g ai/ha, scale 0 to 100): 5; Plant response rating, Kochia (kochia; 31 g ai/ha, scale 0 to 100): 100; Plant response rating, Lambsquarters (lambsquarters; 31 g ai/ha, scale 0 to 100): 100; Plant response rating, Ragweed (common ragweed; 31 g ai/ha, scale 0 to 100): 0; Plant response rating, Pigweed (redroot pigweed; [5]): 100; Pigweed plant response rating (redroot pigweed; [6]): 100; Pigweed plant response rating (redroot pigweed; [5]): 100; Plant response rating, Velvetleaf (velvetleaf; 31 g ai/ha, scale 0 to 100): 0; Plant response rating, Velvetleaf (velvetleaf; [3]): 70; Plant response rating, Sunflower ([1]; 31 g ai/ha, scale 0 to 100): 0; Plant response rating (0 = no effect, 100 = complete control), Sunflower [1]: 0; Plant response rating, Sunflower [1, 2]: 0; Plant response rating, Sunflower [1, 3]: 0; Plant response rating, Barnyardgrass (barnyardgrass; [4]): 65; Plant response rating, Barnyardgrass (barnyardgrass; [5]): 100; Barnyardgrass plant response rating (barnyardgrass; [6]): 50; Barnyardgrass plant response rating (barnyardgrass; [5]): 95
CCN1CCc2c(NC(=O)c3cc(C(C)(C)C)nn3CC)cccc2C1=O [Compound 63]	0	0	5	0	5	10	30	80	90	30	95	100	40	80	90	100	0	0	10	95	Corn plant response rating (corn; [7]): 30; Foxtail, Giant plant response rating (giant foxtail; [7]): 80; Kochia plant response rating (kochia; [7]): 90; Lambsquarters plant response rating (lambsquarters; [7]): 100; Ragweed plant response rating (common ragweed; [7]): 95; Plant response rating, Pigweed (redroot pigweed; [5]): 100; Pigweed plant response rating (redroot pigweed; [6]): 100; Pigweed plant response rating (redroot pigweed; [5]): 100; Plant response rating, Velvetleaf (velvetleaf; [2]): 10; Plant response rating, Velvetleaf (velvetleaf; [3]): 30; Velvetleaf plant response rating (velvetleaf; [7]): 100; Plant response rating (0 = no effect, 100 = complete control), Sunflower [1]: 0; Plant response rating, Sunflower [1, 2]: 0; Plant response rating, Sunflower [1, 3]: 0; Sunflower plant response rating [1, 7]: 30; Plant response rating, Barnyardgrass (barnyardgrass; [4]): 60; Plant response rating, Barnyardgrass (barnyardgrass; [5]): 90; Barnyardgrass plant response rating (barnyardgrass; [6]): 70; Barnyardgrass plant response rating (barnyardgrass; [5]): 100
